49 compounds from patent US20260234144A1 (TAY THERAPEUTICS LIMITED, priority 2023, published 2026) can be followed below.

This assay concerns R223X stop codon in the mutated luciferase gene, ADXC8 luciferase reporter cell line. Kind of assay: cells. The class given is cell-based. Conditions: for Emax / EC (100% of 200 uM G418 response): 24 h; for Emax: read-out: Fold Over Control, maximum fold response relative to 200 μM G418; for Emax / EC (100% of 200 uM G418 response) / Fold Over Control / pC100%: ADXC8 cells, 24 hours; for EC (100% of 200 uM G418 response): read-out: pC100%, negative logarithm of the concentration giving the same response as 200 μM G418; for Fold Over Control: maximum fold response relative to 200 μM G418; for pC100%: negative logarithm of the concentration giving the same response as 200 μM G418.

Each structure is given as a SMILES string. A value given as a limit tells only on which side of the number the result lay.

For `Cc1cc(C)c2c(N)nc(NCC(C)(C)N3CCOCC3)nc2n1` [Example 148], the Emax is 100 to 3000% and the EC (100% of 200 uM G418 response) was 10 to 100 µM. For `Cc1cc(C)c2c(N)cc(N[C@@H]3CCNC3)nc2n1` [Example 255, (R)-5,7-dimethyl-N^2-(pyrrolidin-3-yl)-1,8-naphthyridine-2,4-diamine], the EC (100% of 200 uM G418 response) fell in the range of 0.1 to 1 µM. With `Cc1c2c(nc3nc(NC4CCN(Cc5cccc(C(=O)O)c5)CC4)nc(N)c13)CCC2` [Example 674], the Emax lay in the range of 0 to 100% and the EC (100% of 200 uM G418 response) was above 31.6 µM. `Cc1cc(C)c2c(N)nc(NC3CCN(Cc4cnco4)CC3)nc2n1` [Example 474]: the Emax lay in the range of 100 to 3000% and the EC (100% of 200 uM G418 response) fell in the range of 10 to 100 µM. Taken in the same sequence, the figures for `Cc1cc(C)c2c(N)nc(NC3CCNC(C)C3)nc2n1` (stereo not drawn) [Example 175] were 100 to 3000% and 1 to 10 µM.

`Cc1c2c(nc3nc(NC4CCN(Cc5ccc(C(=O)O)cc5)CC4)nc(N)c13)CCC2` [Example 673]: the Emax lay in the range of 100 to 3000% and the EC (100% of 200 uM G418 response) fell in the range of 1 to 10 µM. Regarding `CNc1nc(N[C@H]2CN(C)C[C@@H]2O)nc2nc(C)c(Br)c(C)c12` [Example 615], the EC (100% of 200 uM G418 response) is 1 to 10 µM. As to `CNc1nc(N[C@H]2CN(C)C[C@@H]2OC(=O)OC(C)(C)C)nc2nc3c(c(C)c12)CCC3` [Example 685, tert-butyl ((3S,4S)-1-methyl-4-((5-methyl-4-(methylamino)-7,8-dihydro-6H-cyclopenta[5,6]pyrido[2,3-d]pyrimidin-2-yl)amino)pyrrolidin-3-yl) carbonate], the Emax fell in the range of 100 to 3000% and the EC (100% of 200 uM G418 response) lay in the range of 0.1 to 1 µM. The corresponding values for `Cc1cc(C)c2c(N)nc(NCC3CCN(C4CC4)C3)nc2n1` (stereo not drawn) [Example 157] are 100 to 3000% and 1 to 10 µM. As for `CC#Cc1ccc2c(N)nc(NC3CCN(C)CC3)nc2n1` [Example 283], the EC (100% of 200 uM G418 response) was 1 to 10 µM.

Turning to `CNC(=O)c1ccc(-c2ccc3c(N)nc(NC4CCN(C)CC4)nc3n2)cc1` [Example 77], the Emax lay within 0 to 100% and the EC (100% of 200 uM G418 response) was above 100 µM. Taken in the same sequence, the figures for `Cc1cc(C)c2c(NCc3ccncc3)nc(NC3CCN(C)CC3)nc2n1` [Example 319] were 0 to 100% and above 31.6 µM. Taken in the same sequence, the figures for `Cc1cc(C)c2c(N)nc(N[C@@H]3CN[C@@H](C)C3)nc2n1` [Example 349] were 100 to 3000% and 10 to 100 µM. The corresponding values for `CN1CCC(Nc2nc(N)c3ccc(-c4ccc(CO)cc4)nc3n2)CC1` [Example 94] are 100 to 3000% and 10 to 100 µM. Turning to `Cc1cc(C)c2c(N)nc(NC3CC34CCNCC4)nc2n1` (stereo not drawn) [Example 640], the Emax is 0 to 100% and the EC (100% of 200 uM G418 response) was above 31.6 µM. `Cc1cc(C)c2c(N)nc(NCCC3CCCN(C)C3)nc2n1` (stereo not drawn) [Example 159]: the EC (100% of 200 uM G418 response) lay in the range of 1 to 10 µM.

Turning to `CNc1nc(NC2CC3CCC2N3)nc2nc(C)cc(C)c12` (stereo not drawn) [Example 518, N^2-(-7-azabicyclo[2.2.1]heptan-2-yl)-N^4,5,7-trimethylpyrido[2,3-d]pyrimidine-2,4-diamine], the “Fold Over Control” value is “## (Fold over Ctrl > 1 ≤ 30)” and the pC100% entry was “+ (pC100% > 4.0 ≤ 5.0)”. Turning to `Cc1c2c(nc3nc(NC4CCN(Cc5ccccc5B(O)O)CC4)nc(N)c13)CCC2` [Example 670], the Emax was in the range of 100 to 3000% and the EC (100% of 200 uM G418 response) fell in the range of 0.1 to 1 µM. As to `CNCCNc1nc(NC2CCN(C)CC2)nc2nc(C)cc(C)c12` [Example 330], the Emax lay in the range of 0 to 100% and the EC (100% of 200 uM G418 response) is above 31.6 µM. Regarding `CC(=O)Nc1ccc(-c2ccc3c(N)nc(NC4CCN(C)CC4)nc3n2)cc1` [Example 73], the Emax fell in the range of 0 to 100% and the EC (100% of 200 uM G418 response) is above 100 µM. As for `COc1ccc(-c2ccc3c(N)nc(NC4CCN(C)CC4)nc3n2)cc1` [Example 24, 7-(4-methoxyphenyl)-N^2-(1-methylpiperidin-4-yl)pyrido[2,3-d]pyrimidine-2,4-diamine], the EC (100% of 200 uM G418 response) fell in the range of 1 to 10 µM.

`[2H]C([2H])([2H])Nc1nc(N[C@H]2CNC[C@@H]2O)nc2nc3c(c(C)c12)CCC3` [Example 563]: the EC (100% of 200 uM G418 response) was in the range of 0.1 to 1 µM. On the same count and under the same terms, the result for `CCCN1CCC(Nc2nc(N)c3c(C)cc(C)nc3n2)CC1` [Example 221] reads 1 to 10 µM. `Cc1cc(C)c2c(N)nc(N[C@@H]3CCN(CC(F)(F)F)C3)nc2n1` [Example 311]: the Emax lay in the range of 0 to 100% and the EC (100% of 200 uM G418 response) was above 31.6 µM.

For the compound `Cc1cc(C)c2c(N)nc(NC3CCN(Cc4ccc(C(F)(F)F)cc4)CC3)nc2n1` [Example 456], the Emax lay in the range of 100 to 3000% and the EC (100% of 200 uM G418 response) lay in the range of 1 to 10 µM. For `Nc1nc(N)c2cccnc2n1` [pyrido[2,3-d]pyrimidine-2,4-diamine, reference compound], the Emax lay within 0 to 100% and the EC (100% of 200 uM G418 response) is above 100 µM. Further, the pC100% response result (assayed at a concentration of 300 μM, C100% = concentration giving the same response as 200 μM G418) is reported as “not reached”. On to `CNc1nc(NC2CC3CC2CN3C)nc2nc(C)cc(C)c12` (single isomer, unassigned) [Example 432], for which the “Fold Over Control” value is “## (Fold over Ctrl > 1 ≤ 30)” and the pC100% entry is “++ (pC100% > 5.0 ≤ 6.0)”. Turning to `Cc1cc(C)c2c(N)nc(NC3C[C@H]4CC[C@@H](C3)N4)nc2n1` (stereo partly drawn) [Example 177], the Emax was 100 to 3000% and the EC (100% of 200 uM G418 response) was 0.1 to 1 µM. The corresponding values for `CN1CCC(Nc2nc(N)c3cc(-c4cn(C)cn4)cnc3n2)CC1` [Example 644] are 0 to 100% and above 100 µM. The corresponding values for `CN1CCC(Nc2nc(N(C)C)c3cccnc3n2)CC1` [Example 40, N^4,N^4-dimethyl-N^2-(1-methylpiperidin-4-yl)pyrido[2,3-d]pyrimidine-2,4-diamine] are 100 to 3000% and 10 to 100 µM. Take `CNc1nc(N[C@H]2CN(C)C[C@@H]2O)nc2nc(C)c(Cl)c(C)c12` [Example 629]: the EC (100% of 200 uM G418 response) lay within 1 to 10 µM. For the compound `CNc1nc(N[C@H]2CNC[C@H]2O)nc2nc(C)cc(C)c12` [Example 326], the Emax lay within 0 to 100% and the EC (100% of 200 uM G418 response) is above 31.6 µM. `CNc1nc(NC2CCN(Cc3ccccc3)CC2)nc2nc3c(c(C)c12)CCC3` [Example 605]: the Emax fell in the range of 100 to 3000% and the EC (100% of 200 uM G418 response) was 0.1 to 1 µM. Take `Cc1cc(C)c2c(N)nc(N[C@H]3CCNC3)nc2n1` [Example 292]: the Emax was in the range of 100 to 3000% and the EC (100% of 200 uM G418 response) lay within 1 to 10 µM. Take `CN1CCC(Nc2nc(N)c3c(n2)nc(-c2ccccc2)c2ccccc23)CC1` [Example 31, N^3-(1-methylpiperidin-4-yl)-6-phenylpyrimido[4,5-c]isoquinoline-1,3-diamine]: the Emax lay within 100 to 3000% and the EC (100% of 200 uM G418 response) was 1 to 10 µM. The corresponding values for `Cc1c2c(nc3nc(N[C@H]4CNC[C@@H]4O)nc(N)c13)CCC2` [Example 582] are 100 to 3000% and 0.01 to 0.1 µM. Taken in the same sequence, the figures for `CNc1nc(N[C@H]2CN(C)C[C@@H]2O)nc2nc(C)c(C)c(C)c12` [Example 520, (3S,4S)-1-methyl-4-((5,6,7-trimethyl-4-(methylamino)pyrido[2,3-d]pyrimidin-2-yl)amino)pyrrolidin-3-ol] were 100 to 3000% and 0.1 to 1 µM. Taken in the same sequence, the figures for `CNc1nc(N[C@H]2CN(C)C[C@@H]2OC(=O)C(C)C)nc2nc3c(c(C)c12)CCC3` [Example 684, (3S,4S)-1-methyl-4-((5-methyl-4-(methylamino)-7,8-dihydro-6H-cyclopenta[5,6]pyrido[2,3-d]pyrimidin-2-yl)amino)pyrrolidin-3-yl isobutyrate] were 100 to 3000% and 0.1 to 1 µM.

Regarding `Cc1cc(C)c2c(N)nc(NC[C@@H]3CN(C(=O)OC(C)(C)C)CCO3)nc2n1` [Example 136], the Emax lay in the range of 0 to 100% and the EC (100% of 200 uM G418 response) was above 100 µM.

As for `CNc1nc(N[C@H]2CNC[C@@H]2O)nc2nc(C)c3c(c12)CCC3` [Example 344], the EC (100% of 200 uM G418 response) lay within 0.01 to 0.1 µM. With `CNc1c(C)c(NC2CCN(C)CC2)nc2nc(C)cc(C)c12` [Example 257, N^4,3,5,7-tetramethyl-N^2-(1-methylpiperidin-4-yl)-1,8-naphthyridine-2,4-diamine], the Emax is 0 to 100% and the EC (100% of 200 uM G418 response) was above 31.6 µM. The corresponding values for `CN1CCC(Nc2cc(N)c3cccnc3n2)CC1` [Example 43, N^2-(1-methylpiperidin-4-yl)-1,8-naphthyridine-2,4-diamine] are 100 to 3000% and 10 to 100 µM.

For the compound `CNc1nc(N[C@@H]2C[C@@H]3CC[C@H]2N3C)nc2nc(C)cc(C)c12` [Example 368], the Emax was in the range of 100 to 3000% and the EC (100% of 200 uM G418 response) fell in the range of 1 to 10 µM. As for `Cc1cc(C)c2c(N)nc(NC3CCN(Cc4cnn(C)c4)CC3)nc2n1` [Example 568], the Emax is 100 to 3000% and the EC (100% of 200 uM G418 response) fell in the range of 1 to 10 µM. The corresponding values for `Cc1c2c(nc3nc(NC4CCN(Cc5ccccc5NS(C)(=O)=O)CC4)nc(N)c13)CCC2` [Example 671] are 100 to 3000% and 1 to 10 µM.

Consider `Cc1cc(C)c2c(NCCN3CCOCC3)nc(NC3CCN(C)CC3)nc2n1` [Example 357], for which the Emax lay within 100 to 3000% and the EC (100% of 200 uM G418 response) was in the range of 1 to 10 µM.

For the compound `Cc1c2c(nc3nc(NC4CCN(Cc5cccc6cc[nH]c56)CC4)nc(N)c13)CCC2` [Example 672], the Emax was in the range of 100 to 3000% and the EC (100% of 200 uM G418 response) lay in the range of 0.01 to 0.1 µM. Consider `Cc1cc(C)c2c(N)nc(N[C@@H]3CCNC[C@H]3O)nc2n1` [Example 180], for which the Emax lay in the range of 100 to 3000% and the EC (100% of 200 uM G418 response) lay within 1 to 10 µM.

As for `Cc1nc2nc(NC3CCNCC3)nc(N)c2c2c1CCC2` [Example 556], the Emax is 100 to 3000% and the EC (100% of 200 uM G418 response) was 0.1 to 1 µM.
